Our source for the T/C values is PubChem BioAssay AID192 (DTP/NCI, 2004).

Several values for one entry are separate records, joined by “and”; a condition that tells them apart may be missing. Equal entries are not always repeated. Toxic doses and inconclusive results are not listed.

The subject of this experiment is BDF1 mice, B16 melanoma ip, median survival T/C. The experiment in a line: NCI In Vivo Anticancer Drug Screen. Data for tumor model B16 Melanoma (intraperitoneal) in B6D2F1 (BDF1) mice. To be noted: endpoint: median survival time, higher = longer survival. How it is done:
The antitumor activity of compounds was measured in mice bearing transplantable tumors. Survival or tumor size were measured and the results are expressed as the measurement made in the treated group (T) divided by the measurement made in the vehicle treated control group (C). The tumor model used in this assay is B16 Melanoma (intraperitoneal) in B6D2F1 (BDF1) mice

Where [1] appears, read: dose: 0.25 mg/kg/injection, schedule: Q01DX009 (ip), vehicle: saline + alcohol.
Setting [2] is: dose: 0.5 mg/kg/injection, schedule: Q01DX009 (ip), vehicle: saline + alcohol.
Where [3] appears, read: dose: 12.5 mg/kg/injection, schedule: Q01DX009 (ip), vehicle: saline.
Setting [4] is: dose: 25.0 mg/kg/injection, schedule: Q01DX009 (ip), vehicle: saline.
The mark [5] stands for this setting: dose: 50.0 mg/kg/injection, schedule: Q01DX009 (ip), vehicle: saline.
The mark [6] stands for this setting: dose: 100.0 mg/kg/injection, schedule: Q01DX009 (ip), vehicle: saline with Tween-80.
Where [7] appears, read: dose: 200.0 mg/kg/injection, schedule: Q01DX009 (ip), vehicle: saline with Tween-80.
Where [8] appears, read: dose: 400.0 mg/kg/injection, schedule: Q01DX009 (ip), vehicle: saline with Tween-80.
Where [9] appears, read: dose: 12.5 mg/kg/injection, schedule: Q01DX009 (ip), vehicle: saline with Tween-80.
The mark [10] stands for this setting: dose: 25.0 mg/kg/injection, schedule: Q01DX009 (ip), vehicle: saline with Tween-80.
Where [11] appears, read: dose: 50.0 mg/kg/injection, schedule: Q01DX009 (ip), vehicle: saline with Tween-80.
The mark [12] stands for this setting: dose: 100.0 mg/kg/injection, schedule: Q01DX009 (ip), vehicle: Klucel (hydroxypropylcellulose) (HPC).
The mark [13] stands for this setting: dose: 200.0 mg/kg/injection, schedule: Q01DX009 (ip), vehicle: Klucel (hydroxypropylcellulose) (HPC).
The mark [14] stands for this setting: dose: 400.0 mg/kg/injection, schedule: Q01DX009 (ip), vehicle: Klucel (hydroxypropylcellulose) (HPC).
Setting [15] is: dose: 5.0 mg/kg/injection, schedule: Q01DX009 (ip), vehicle: Klucel (hydroxypropylcellulose) (HPC).

Turning to `COC(=O)[C@@]12OC[C@]34[C@H]([C@@H](O)[C@@H]1O)[C@@]1(C)CC(=O)C(O)=C(C)[C@@H]1C[C@H]3OC(=O)[C@H](OC(=O)/C=C(\C)C(C)C)[C@@H]24`, the T/C by setting is: (dose: 0.03 mg/kg/injection, schedule: Q01DX009 (ip), vehicle: saline + alcohol) 122 % of control; (dose: 0.12 mg/kg/injection, schedule: Q01DX009 (ip), vehicle: other) 169 % of control; (dose: 0.12 mg/kg/injection, schedule: Q01DX009 (ip), vehicle: saline + alcohol) 153 % of control; (dose: 0.25 mg/kg/injection, schedule: Q01DX009 (ip), vehicle: other) 155 % of control; under setting [1], 154 % of control; (dose: 0.5 mg/kg/injection, schedule: Q01DX009 (ip), vehicle: other) 160 % of control. For the same molecule, the T/C was 154 % of control and 157 % of control under setting [2]; 164 % of control (dose: 1.0 mg/kg/injection, schedule: Q01DX009 (ip), vehicle: other); 158 % of control and 164 % of control (dose: 1.0 mg/kg/injection, schedule: Q01DX009 (ip), vehicle: saline + alcohol); 177 % of control (dose: 2.0 mg/kg/injection, schedule: Q01DX009 (ip), vehicle: saline + alcohol); 160 % of control (dose: 125.0 micrograms/kg/injection, schedule: Q01DX009 (ip), vehicle: saline + alcohol); 160 % of control (dose: 250.0 micrograms/kg/injection, schedule: Q01DX009 (ip), vehicle: saline + alcohol). Further, the T/C is 168 % of control (dose: 500.0 micrograms/kg/injection, schedule: Q01DX009 (ip), vehicle: saline + alcohol); 164 % of control (dose: 1000.0 micrograms/kg/injection, schedule: Q01DX009 (ip), vehicle: saline + alcohol); 97 % of control (dose: 2000.0 micrograms/kg/injection, schedule: Q01DX009 (ip), vehicle: saline + alcohol).

As to `OCCNCCNc1ccnc2cc(Cl)ccc12`, the T/C runs as follows: under setting [3], 89 % of control; under setting [4], 104 % of control; under setting [5], 99 % of control; (dose: 100.0 mg/kg/injection, schedule: Q01DX009 (ip), vehicle: saline) 110 % of control.

As to `O=C(Nc1ccccc1Cl)c1ccc([N+](=O)[O-])cc1`, the T/C by setting is: under setting [6], 100 % of control; under setting [7], 105 % of control; under setting [8], 97 % of control.

As to `C=C1C(=O)OC2C1CCC(C)C1CCC(=O)OC12C` (stereo not drawn), the T/C is 97 % of control (dose: 3.13 mg/kg/injection, schedule: Q01DX009 (ip), vehicle: Klucel (hydroxypropylcellulose) (HPC)); 103 % of control (dose: 6.25 mg/kg/injection, schedule: Q01DX009 (ip), vehicle: Klucel (hydroxypropylcellulose) (HPC)); 100 % of control (dose: 12.5 mg/kg/injection, schedule: Q01DX009 (ip), vehicle: Klucel (hydroxypropylcellulose) (HPC)); 101 % of control (dose: 25.0 mg/kg/injection, schedule: Q01DX009 (ip), vehicle: Klucel (hydroxypropylcellulose) (HPC)).

`C=CCOCC(O)CN(CCC)CCC` (stereo not drawn): the T/C by setting is: under setting [9], 114 % of control; under setting [10], 112 % of control; under setting [11], 114 % of control.

With `C[n+]1c2cc(N)ccc2cc2ccc(N)cc21`, the T/C reads like this: (dose: 1.56 mg/kg/injection, schedule: Q01DX009 (ip), vehicle: saline) 107 % of control; (dose: 3.13 mg/kg/injection, schedule: Q01DX009 (ip), vehicle: saline) 117 % of control; (dose: 6.25 mg/kg/injection, schedule: Q01DX009 (ip), vehicle: saline) 115 % of control; under setting [3], 111 % of control.

Regarding `COc1cc2c(cc1OC)C(CNC(=O)/C=C/c1ccccc1)C2` (stereo not drawn), the T/C under setting [12] was 122 % of control, the T/C under setting [13] is 97 % of control and the T/C under setting [14] is 94 % of control.

For `CCN(CC)CCNc1ccc([N+](=O)[O-])cc1[N+](=O)[O-]`, the T/C was 100 % of control under setting [10]; 113 % of control under setting [11]; 102 % of control (dose: 50.0 mg/kg/injection, schedule: Q04DX003 (ip), vehicle: saline with Tween-80); 100 % of control under setting [6]; 100 % of control (dose: 100.0 mg/kg/injection, schedule: Q04DX003 (ip), vehicle: saline with Tween-80).

As to `CC(=O)Nc1ccc(C#N)c2ccccc12`, the T/C reads like this: under setting [12], 124 % of control; under setting [13], 111 % of control; under setting [14], 111 % of control.

For the molecule `COc1ccccc1NC(=O)Nc1ccc(C(=O)OCC(C)C)cc1`, the T/C was 100 % of control under setting [11], 94 % of control under setting [6] and 95 % of control under setting [7].

In the case of `COC(=O)C1C(O)C(C)C(=O)C(C)/C=C\C=C(C)C(=O)Nc2c(C)c(OC(C)=O)c3c(c2O)C(=O)C(C)=C2OCOC(=C23)C(C)=CC(C)(O)C(O)C(C)C1O` (stereo not drawn), the T/C was 89 % of control under setting [12] and 89 % of control under setting [13].

As to `Cc1n(CC(C)C)c2c([n+]1CC(=O)c1ccc([N+](=O)[O-])cc1)C(=O)c1ccccc1C2=O`, the T/C (dose: 0.1 mg/kg/injection, schedule: Q01DX009 (ip), vehicle: saline) was 95 % of control; the T/C (dose: 0.2 mg/kg/injection, schedule: Q01DX009 (ip), vehicle: saline) is 97 % of control; the T/C (dose: 0.4 mg/kg/injection, schedule: Q01DX009 (ip), vehicle: saline) was 97 % of control; the T/C (dose: 0.8 mg/kg/injection, schedule: Q01DX009 (ip), vehicle: saline) was 88 % of control; the T/C (dose: 1.2 mg/kg/injection, schedule: Q01DX009 (ip), vehicle: Klucel (hydroxypropylcellulose) (HPC)) is 93 % of control; the T/C (dose: 1.25 mg/kg/injection, schedule: Q01DX009 (ip), vehicle: saline with Tween-80) was 86 % of control. For the same molecule, the T/C is 93 % of control (dose: 1.8 mg/kg/injection, schedule: Q01DX009 (ip), vehicle: Klucel (hydroxypropylcellulose) (HPC)); 86 % of control (dose: 2.5 mg/kg/injection, schedule: Q01DX009 (ip), vehicle: saline with Tween-80); 87 % of control (dose: 3.0 mg/kg/injection, schedule: Q01DX009 (ip), vehicle: Klucel (hydroxypropylcellulose) (HPC)); 93 % of control under setting [15].

On to `COCCCN1CCN(c2ccccc2OC)CC1`, for which the T/C by setting is: under setting [4], 101 % of control; under setting [5], 92 % of control.

In the case of `C/C=C(\C)C(=O)OC1C(C)C2(O)C(C=C(CO)CC3(O)C(=O)C(C)=CC32)C2C(C)(C)C12OC(=O)CCCCCCCCC` (stereo not drawn), the T/C reads like this: (dose: 0.13 mg/kg/injection, schedule: Q01DX009 (ip), vehicle: saline + alcohol) 102 % of control and 104 % of control; under setting [1], 92 % of control and 94 % of control; under setting [2], 92 % of control.

Regarding `COC1CCCCC1SCSC1CCCCC1OC` (stereo not drawn), the T/C reads like this: under setting [6], 105 % of control; under setting [7], 102 % of control; under setting [8], 105 % of control.

`CC(C)=CCC(OC(=O)C=C(C)C)C1=CC(=O)c2c(O)ccc(O)c2C1=O` (stereo not drawn): the T/C is, setting by setting: (dose: 0.25 mg/kg/injection, schedule: Q01DX009 (ip), vehicle: Klucel (hydroxypropylcellulose) (HPC)) 99 % of control; (dose: 0.5 mg/kg/injection, schedule: Q01DX009 (ip), vehicle: Klucel (hydroxypropylcellulose) (HPC)) 92 % of control.

Consider `CCCCCC/C=C/[N+]([O-])=NC(COC)C(C)O` (stereo not drawn), for which the T/C was 107 % of control under setting [15] and 105 % of control (dose: 10.0 mg/kg/injection, schedule: Q01DX009 (ip), vehicle: Klucel (hydroxypropylcellulose) (HPC)).

On to `N#CC(=C1C=CC(=NO)C=C1)c1ccc(Cl)cc1`, for which the T/C by setting is: (dose: 6.25 mg/kg/injection, schedule: Q01DX009 (ip), vehicle: saline with Tween-80) 88 % of control; under setting [9], 95 % of control; under setting [10], 87 % of control; under setting [11], 86 % of control.

Regarding `CN=C(N)N/N=C(\C)c1ccc2oc3ccc(/C(C)=N/NC(N)=NC)cc3c2c1`, the T/C was 106 % of control under setting [9], 113 % of control under setting [10] and 102 % of control under setting [11].

Regarding `CCC(C)NC(=O)Nc1cccc(Cl)c1C` (stereo not drawn), the T/C under setting [6] is 102 % of control and the T/C under setting [7] was 96 % of control.

As for `Clc1ccc(CN2COc3c(ccc4cccnc34)C2)cc1Cl`, the T/C was 106 % of control under setting [10], 108 % of control under setting [11] and 107 % of control under setting [6].
